Assay results from patent US20030152557A1, “Methods for inhibiting histone deacetylase-4” (priority 2001, published 2003).

Experiments:
[1] = test system: murine erythroleukemia cells; conditions: Yoshida et al. 1987; cited from earlier work
HMEC = assay: apoptosis, Cell Death Detection ELISA, HMEC; format: cell-based, human; conditions: 100 ng/ml, 48 hour treatment
Description: (§1) Briefly, human A549 and/or T24 human bladder carcinoma cells were seeded in 10 cm tissue culture dishes one day prior to oligonucleotide treatment. The cell lines were obtained from the American Type Culture Collection (ATCC) (Manassas, Va.) and were grown under the recommended culture conditions. Before the addition of the oligonucleotides, cells were washed with PBS (phosphate buffered saline). Next, lipofectin transfection reagent (GIBCO BRL Mississauga, Ontario, CA), at a concentration of 6.25 μg/ml, was added to serum free OPTIMEM medium (GIBCO BRL, Rockville, Md.), which was then added to the cells. The oligonucleotides to be screened were then added directly to the cells (i.e., one oligonucleotide per plate of cells). Mismatched oligonucleotides were used as controls. The same concentration of oligonucleotide (e.g., 50 nM) was used per plate of cells for each oligonucleotide tested.
(§2) In order to determine the effect of HDAC OSDNs on cell growth and cell death through apoptosis, A549 or T24 cells, MDAmb231 cells, and HMEC cells (ATCC, Manassas, Va.) were treated with HDAC OSDNs as previously described.
(§3) For the apoptosis study, cells were analyzed using the Cell Death Detection ELISA^Plus kit (Roche Diagnostic GmBH, Mannheim, Germany) according to the manufacturer's directions. Typically, 10,000 cells were plated in 96-well tissue culture dishes for 2 hours before harvest and lysis. Each sample was analyzed in duplicate. ELISA reading was done using a MR700 plate reader (DYNEX Technology, Ashford, Middlesex, England) at 410 nm. The reference was set at 490 nm.

mammalian HDAC = conditions: Yoshida et al. 1990; cited from earlier work
T24 = assay: apoptosis, Cell Death Detection ELISA, T24; format: cell-based, human; conditions: 100 ng/ml, 48 hour treatment
Description: as §1, §2, §3

MDAmb231 = assay: apoptosis, Cell Death Detection ELISA, MDAmb231; format: cell-based, human; conditions: 100 ng/ml, 48 hour treatment
Description: as §1, §2, §3

A549 cells = assay: RNase protection assay of p21, GADD45 and Bax mRNA, A549; conditions: A549, TSA 250 ng/ml 16 hours vs lipofectin
Description: As a control, A549 cells were treated by lipofectin with or without TSA (250 ng/ml) treatment for 16 hours. […] Total RNA from cells was prepared using “RNeasy miniprep kit” from QIAGEN following the manufacturer's manual. Labeled probes used in the protection assays were synthesized using “hStress-1 multiple-probe template sets” from Pharmingen (San Diego, Calif., U.S.A.) according to the manufacturer's instructions. Protection procedures were performed using “RPA II™ Ribonuclease Protection Assay Kit” from Ambion, (Austin, Tex.) following the manufacturer's instructions. Quantitation of the bands from autoradiograms was done by using Cyclone™ Phosphor System (Packard Instruments Co. Inc., Meriden, Conn.).

A549 = assay: apoptosis, Cell Death Detection ELISA, A549; format: cell-based, human; conditions: 100 ng/ml, 48 hour treatment
Description: as §1, §2, §3

CC(/C=C/C(=O)NO)=C\[C@@H](C)C(=O)c1ccc(N(C)C)cc1 [TSA, (R)-Trichostatin A, reference compound]
induction of differentiation [1]: potent inducer of differentiation in murine erythroleukemia cells | Apoptosis HMEC (HMEC): + (“+”: 2-3X fold) | inhibition of mammalian HDAC (mammalian HDAC): potent inhibitor of mammalian HDAC | Apoptosis T24 (T24): ++ (“++”: 3-5X fold) | Apoptosis MDAmb231 (MDAmb231): ++ (“++”: 3-5X fold) | fold induction of transcription Bax (A549 cells): 0.8 fold | fold induction of transcription GADD45 (A549 cells): 0.6 fold | fold induction of transcription p21 (A549 cells): 2.8 fold | Apoptosis A549 (A549): ++ (“++”: 3-5X fold)
